According to patent US20220110847A1, “USE OF COOLING MATERIALS FOR THE REDUCTION OR INHIBITION OF SALTINESS IN ORALLY ADMINISTERED, IMBIBED OR INGESTED CONSUMER PRODUCTS” (TAKASAGO INTERNATIONAL CORPORATION, priority 2019, published 2022):

Test: Saltiness rating of toothpaste samples by an expert panel
Type: in vivo
Settings: for Average RATING (saltiness): saltiness scale of 1 (less salty) to 7 (most salty), 7 evaluators, cooling material at 0.2 % (table) in commercial toothpaste with approximately 50% by weight sodium bicarbonate, Control 6.43; for perceived salty taste compared with both the Control and the other tested cooling materials: cooling material added to commercial toothpaste with approximately 50% sodium bicarbonate, expert panel
Experimental: A sample of a commercially available toothpaste containing approximately 50% by weight of sodium bicarbonate was used as a Control. […] All of the toothpaste samples, including the Control, were evaluated by an expert panel comprised of 4 Flavorist(s), 2 Flavor Lab Managers, and 1 Flavor Lab Technician. Each sample was assigned a number by each evaluator to indicate saltiness, using a saltiness scale of 1(less salty) to 7(most salty).

| Structure (SMILES) | Average RATING (saltiness) | perceived salty taste compared with both the Control and the other tested cooling materials |
| --- | --- | --- |
| CNC(=O)C(C)(C(C)C)C(C)C [2-isopropyl-N,2,3-trimethylbutyramide, reference compound] | 6 |  |
| CC1CCC(C(C)(C)O)C(O)C1 (centres unmarked) [p-menthane-3,8-diol] | 5.86 | less salty taste |
| C=C(C)[C@@H]1CC[C@@H](C)C[C@H]1O [1-isopulegol, reference compound] | 6.29 |  |
| CC(=O)C1CCC(C)CC1O (centres unmarked) [1-(2-hydroxy-4-methylcyclohexyl)-ethanone] | 2.43 | less salty taste |
| CC(C)[C@@H]1CC[C@@H](C)C[C@H]1OCC(O)CO (stereo partly drawn) [3-L-menthoxypropan-1,2-diol] | 3.00 | less salty taste |
| CC1CCC(C(C)C)C(OCCO)C1 (centres unmarked) [hydroxyethyl-menthyl ether] | 5.57 | less salty taste |
| COc1ccc(NC(=O)C2CC(C)CCC2C(C)C)cc1 (centres unmarked) [N-(4-methoxyphenyl)-p-menthanecarboxamide] | 5.57 | less salty taste |
| CCOC(=O)CNC(=O)C1CC(C)CCC1C(C)C (centres unmarked) [N-[(ethoxycarbonyl)methyl)-p-menthane-3-carboxamide, reference compound] | 6.43 |  |
| CC1CCC(C(C)C)C(OC(=O)C(C)O)C1 (centres unmarked) [Menthyl Lactate, reference compound] | 6.43 |  |
| CCNC(=O)C1CC(C)CCC1C(C)C (centres unmarked) [N-ethyl-5-methyl-2-propan-2-ylcyclohexane-1-carboxamide, reference compound] | 6.57 |  |
| CC(O)CC(=O)O[C@@H]1C[C@H](C)CC[C@H]1C(C)C (stereo partly drawn) [L-menthyl-3-hydroxybutanoate] | 3.86 | less salty taste |
